# “And” between values parts separate entries of the source, which are not always exact repeats. Equal entries are not always repeated. “Also recorded” adds a separate entry of the source. Where two headings read alike, the source gives them in different places.
# Columns and labels:
# [1] = molecular target: synuclein (Homo sapiens, UniProt P37840); experiment: Anti-oligomer antibody ELISA, synuclein
# Experimental: The ability of CNI-1493 to prevent aggregation of synuclein was tested by determining the recognition of synuclein by an anti-oligomer antibody (gift of Dr. C. Glabe, University of California at Irvine) in an ELISA assay.
# [2] = molecular target: T1, Aβ42 (Homo sapiens, UniProt P05067); experiment: Anti-oligomer antibody ELISA, Aβ42
# T1 construct: less abundant 42-amino acid form (Aβ42)
# [3] = molecular target: T2, Aβ40 (Homo sapiens, UniProt P05067); experiment: Anti-oligomer antibody ELISA, Aβ40
# T2 construct: The 40-amino acid form (Aβ340) is the most abundantly produced Aβ peptide
# [4] = test system: F4/80 antigen; experiment: Western blot of F4/80 (microglial activation) in brain of treated TgCRND8 mice; format: in vivo, mouse; details: 8 mg/kg i.p. twice a week for 8 weeks, vs control
# Experimental: (§1) Drug treatment of TgCRND8 mice. APP transgenic TgCRND8 mice at 4 months old received twice a week an i.p. injection of 200 μl containing 200 μg CNI-1493 (8 mg/kg) for 8 weeks. There were four animals in each treatment group. Animals were housed singly in individual cages. At the end of the experimental period, animals were killed by decapitation. The brain was dissected and the hemispheres separated along the midline. One hemisphere was fixed in 4% buffered formaldehyde for 24 h followed by dehydration and paraffin embedding. The other hemisphere was immediately snap-frozen in liquid nitrogen and kept at −80° C.
# Biochemical analysis. Half of the brain was weighed and homogenized in an appropriate volume of T-PER (Perbio, Bonn, Germany) in accordance to the guidelines of the manufacturer. Lysate protein concentration was measured by BCA kit (Perbio). 15-60 μg protein per sample was loaded onto a pre-cast NuPAGE Novex 4-12% Bis-Tris gel and separated using the Novex electrophoresis system (Invitrogen, Karsruhe, Germany). Subsequently, the proteins were transferred onto nitrocellulose membranes (Invitrogen) using the XCell II™ blot (Invitrogen). The immobilized proteins were visualized using MemCode reversible protein staining kit (Perbio). […] Equal protein loading of all membranes was assessed by reprobing with monoclonal antibodies against GAPDH (Acris, Hiddenhausen, Germany).
# [5] = test system: APP-expressing TgCRND8 mice; experiment: Aβ plaque burden by immunohistochemistry and image analysis in TgCRND8 mice; format: in vivo, mouse; details: 8 mg/kg i.p. twice a week for 8 weeks, vs vehicle
# Experimental: Animals. All animal procedures were approved by the office of the district president and the institutional animal care and use committee for the University of Munster. We used the TgCRND8 mouse line (courtesy of David Westaway, University of Toronto, Toronto, Ontario, Canada). TgCRND8 mice encode a double mutant form of amyloid precursor protein 695 (KM670/671 NL+V717F) under the control of the PrP gene promoter (Chishti et al., 2001). Thioflavine S-positive Aβ amyloid deposits are present at 3 months, with dense-cored plaques and neuritic pathology evident from 5 months of age.
# as §1
# Immunohistochemistry. Three pairs of 2 μm sagittal brain sections of each transgenic animal were stained for Aβ immunoreactivity. The pairs (10 μm distance) were situated 100 μm, 200 μm and 300 μm lateral from the mid-sagittal fissure. All slices were pretreated with formic acid and automatically stained in a TechMate Instrument (Dako Cytomation, Hamburg, Germany) with 6F/3D anti-Aβ monoclonal antibody to residues 8-17 (Dako, 1:100). For further steps, the Dako StreptABC complex-horseradish peroxidase conjugated “Duet” anti mouse/rabbit antibody kit was used and developed with 3, 3′-diaminobenzidine (DAB) as chromogen. Counterstaining was performed with hematoxylin. All slides were stained in two consecutive procedures making sure that brains of both experimental groups were equally distributed in both procedures.
# Image analysis. To quantify Aβ plaque burden, cortices and hippocampi of all stained sections were digitalized by a ColorView II, 3, 3 Mega Pixel CCD camera under constant light and filter settings. Color images were converted to greyscale to obtain best contrast between positive immunoreactivity and background. A constant threshold was chosen for all images to detect immunoreactive staining.
# Morphometric measurements were performed by image analysis software “SIS analysis Auto Software 3.2” (Soft Imaging System GmbH, http://www.soft-imaging.org/). Total number and surface of plaques was related to the total area analyzed.
# [6] = test system: N2a cells expressing wild type APP695; experiment: APP processing analysis in N2a cells; format: cell-based; details: 24 h treatment
# Experimental: APP processing analysis in N2a cells. APP695-transfected N2a cells (Marambaud et al., 2005) were grown in 1:1 DMEM/Opti-MEM supplemented with 5% FBS, penicillin and streptomycin, and 0.2 mg/ml G418. Cells were treated at confluency for 24 h with the indicated concentrations of CNI-1493. Medium was then changed and treatments were continued for another 2 h to allow Aβ secretion. Twenty microliters of conditioned medium were electrophoresed on 16.5% Tris-Tricine gels and transferred onto […] nitrocellulose membranes. Membranes were then microwaved for 5 min in PBS, blocked in 5% fat-free milk in TBS, and incubated with 6E10 (Signet, 1:1000 in Pierce SuperBlock) overnight at 4° C. Cells were washed with PBS and solubilized in ice-cold HEPES buffer (25 mM HEPES, pH 7.4, 150 mM NaCl, 1× Complete protease inhibitor cocktail, Roche) containing 1% SDS. Ten micrograms of extracts were analyzed by western blot with 6E10, R1 (anti-APP C-terminal domain, reference 21), and LN27 (anti-APP1-200, Zymed).
# [7] = test system: primary neurons; experiment: Aβ toxicity in primary neurons; format: cell-based
# Text: To determine whether the CNI-1493-treated form of Aβ is toxic, Aβ that had been pretreated with, or without, CNI-1493 was combined with SY5Y neuroblastoma cells. Toxicity was monitored using MTT (thiazolyl blue) reduction (mitochondrial succinate dehydrogenase activity) and lactate dehydrogenase activity (LDH). The MTT and LDH assays correlated with each other. […] Additionally, the protective effect of CNI-1493 was examined in similar assays using primary neurons.
# [8] = molecular target: T1, Aβ42; experiment: Aβ oligomer ELISA with various concentrations of CNI-1493; details: Aβ42 with increasing concentrations of CNI-1493
# Text: Aβ42 was combined with various concentrations of CNI-1493 and Aβ oligomers were quantified by ELISA using Aβ oligomer-specific antibodies.
# [9] = molecular target: T1, Aβ42; experiment: Electron microscopy of Aβ42 oligomer fibrilization; details: Aβ42 oligomers with vs without CNI-1493
# T2 sequence (P05067 672-711 limits assumed): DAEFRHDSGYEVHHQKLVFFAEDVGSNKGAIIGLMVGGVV
# T1 sequence (P05067 672-713 limits assumed): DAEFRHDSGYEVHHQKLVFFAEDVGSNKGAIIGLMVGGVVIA
SMILES,recognition by anti-oligomer antibody (aggregation) [1],recognition by anti-oligomer antibody (aggregation) [2],recognition by anti-oligomer antibody (aggregation) [3],"microglial activation, F4/80 expression in brain (western blot) [4]",reduction of plaque area (square micrometers per area of interest in square mm) ([5]; cortex),reduction of plaque number (plaques per area of interest in square mm) ([5]; cortex),reduction of plaque number (plaques per area of interest in square mm) ([5]; hippocampus),"reduction of plaque area (square micrometers per area of interest in square mm) ([5]; hippocampus, 8 mg/kg)",recognition by anti-oligomer antibody (aggregation) ([1]; listed as CNI-1492),full length APP production (LN27) [6],"β- or γ-secretase cleavage of APP (C99, C83 fragments) [6]","total Aβ secreted into the medium (western blot, 6E10) ([6]; then medium change and continued treatment)",protection from Aβ toxicity [7],Aβ oligomers by ELISA (final OD) [8],recognition by anti-oligomer antibody (aggregation) ([2]; listed as CNI-1492),recognition by anti-oligomer antibody (aggregation) ([3]; listed as CNI-1492),formation of fibrillar aggregates (electron microscopy) [9]
"N=C(N)c1ccc(OCCCCCOc2ccc(C(=N)N)cc2)cc1 [pentamidine, reference compound]",reduced recognition by the antibody,reduced recognition by the antibody,reduced recognition by the antibody,,,,,,,,,,,,,,
"CC(=NNC(=N)N)c1cc(NC(=O)CCCCCCCCC(=O)Nc2cc(C(C)=NNC(=N)N)cc(C(C)=NNC(=N)N)c2)cc(C(C)=NNC(=N)N)c1.Cl.Cl.Cl.Cl [CNI-1493, N,N′-bis(3,5-diacetylphenyl)decanediamide tetrakis(amidinohydrazone) tetrahydrochloride]",prevents aggregation,prevents aggregation,prevents aggregation,significant reduction in microglial activation; also recorded: decrease of F4/80 signal; also recorded: decline of F4/80 in all CNI-1493 animals,70%,57%,60%,87% and 86%,reduced recognition by the antibody,not accompanied by reduced levels of APP production,no effect,"profound dose-dependent decrease of total Aβ accumulation; also recorded: dose-dependent, dramatic reduction; also recorded: profound dose-dependent decrease of total Aβ secretion",protected the neurons from Aβ toxicity,reduced the final OD in the ELISA; also recorded: reduction in recognition of Aβ oligomers,reduced recognition by the antibody,reduced recognition by the antibody,do not form the fibrillar aggregates; also recorded: inhibited Aβ42 oligomer fibrilization

# Source: patent US20180098950A1, “INHIBITORS OF ABETA AND SYNUCLEIN AGGREGATION” (The Feinstein Institute For Medical Research, priority 2006, published 2018)
